Assay results reported in patent publication US10106552B2, “Compounds inhibiting eukaryotic elongation factor 2 kinase activity” (Longevica Pharmaceuticals, Inc., priority 2013, dated 2018).
Each block holds one compound with its values, some of them ahead of it.

What was measured:
[1] = target: recombinant eEF2K (Homo sapiens (Human), UniProt O00418); experiment: eEF2K Kinase-Glo luminescent kinase assay (ATP consumption, peptide substrate); assay type: biochemical; settings: average of two to four separate experimental measurements, each the average of three replicates
Experimental: The following compounds were synthesized using the general methods described above. In the table below, IC50 values are in μM and are the average of two to four separate experimental measurements, each consisting in turn of the average of three replicates. IC50 values were calculated using the methods as described in Example 2. MW was determined by mass spectroscopy analysis, and is expressed as M+1.
To determine the IC50 of compounds of the invention, recombinant eEF2K was diluted in an assay buffer in the presence of calmodulin, a calcium-binding messenger protein expressed in eukaryotic cells, and incubated with peptide substrate Ac-RKKYKFNEDTERRRFL in the presence of Adenosine-5′-triphosphate (ATP) and the test compound. The peptide substrate is efficiently and specifically phosphorylated by eEF2K at a single substrate concentration of 100 μM. Using this peptide, eEF2K activity can be quantitatively determined using a Kinase-Glo® luminescent kinase assay kit (Promega) that measures ATP consumption by EF2K during phosphorylation of the substrate. ATP conversion was recorded using Perkin-Elmer Victor Luminometer. Data was plotted using GraphPad software and IC50 was calculated using 3-parameter sigmoidal curve fit.

[2] = system: breast cancer cell line MDA-MB-231; experiment: Potentiation of doxorubicin effect, CellTiter-Glo cell viability; assay type: cell-based
Experimental: The potentiation of doxorubicin effect of eEF2K inhibition by Compound 35 in combination with doxorubicin was evaluated. The breast cancer cell line MDA-MB-231 (ATCC No. HTB-26) was incubated with 0.4 μM doxorubicin for 24 hours, with both a negative control (untreated) group and a group receiving only 10 μM Compound 35 but not doxorubicin.

[3] = system: human bone osteosarcoma cancer cell line MG63; experiment: Cell viability under normal conditions and nutrient deprivation, CellTiter-Glo; assay type: cell-based
Experimental: The effect of eEF2K inhibition on the malignant human bone osteosarcoma cancer cell line MG63 (ATCC No. CRL-1427) was evaluated under both normal conditions and during nutrient deprivation. […] One group of cells were grown under normal conditions (advanced MEM/glutamine/10% FBS) and the other group of cells were switched to conditions of nutrient deprivation (HBSS/22 mM HEPES) twenty-four hours after plating. Each group was divided into three subsets: cells receiving no treatment; cells receiving vehicle (DMSO) and cells receiving 10 μM of Compound 35.

[4] = Pharmacokinetic study, intravenous administration; settings: mouse, in vivo, male CD-1 mice, 1 mg/kg
[5] = system: rat embryonic myocardium cell line H9C2; experiment: Doxorubicin-induced apoptosis, CellTiter-Glo cell viability; settings: for recovery, percent of original density: H9C2, 0.4 μM doxorubicin 24 hours
Experimental: The cells were plated into 48-well plates at 0.2×10^5 cells per well and allowed to attach overnight. […] Cell viability was measured on days 1, 2, 3, and 6 using the Promega CellTiter-Glo® Luminescent Cell Viability Assay.

SMILES: CC1(C)CCc2c(nc3sc(C(N)=O)c(N)c3c2-c2cncs2)C1 [Compound 35, 3-Amino-7,7-dimethyl-4-thiazol-5-yl-5,6,7,8-tetrahydro-thieno[2,3-b]quinoline-2-carboxylic acid amide]
IC50 [1]: 0.4 µM
percent of viable cells ([2]; MDA-MB-231, 0.4 μM doxorubicin 24 hours plus 10 μM Compound 35 twice daily for 72 hours, days 2, 4 and 6): significant decrease
percent of viable cells ([2]; MDA-MB-231, 10 μM Compound 35 without doxorubicin, by day 6): increased substantially
viability at 10 µM ([3]; Homo sapiens, MG-63, 144 h, MG63, nutrient deprivation (HBSS/22 mM HEPES), by day 6, read-out: percent viable cells): < 10%
cell growth ([3]; MG63, normal conditions (advanced MEM/glutamine/10% FBS), 10 μM): significant growth
half-life [4]: 34 min
Cmax ([4]; at five minutes): 356 ng/mL
protection of H9C2 cells from doxorubicin-induced toxicity ([5]; 0.4 μM doxorubicin 24 hours, 2 μM or 10 μM compound twice daily for 72 hours): robust, dose-dependent protection
recovery, percent of original density ([5]; 2 μM compound, by day 6): 85%
recovery, percent of original density ([5]; 10 μM compound, by day 2): 85%

SMILES: COc1cccc2c1C(=O)c1c(O)c3c(c(O)c1C2=O)C[C@@](O)(C(=O)CO)C[C@@H]3O[C@H]1C[C@H](N)[C@H](O)[C@H](C)O1 [doxorubicin, reference compound]
percent of viable cells ([2]; MDA-MB-231, 0.4 μM doxorubicin for 24 hours alone, by day 6): increased slightly
proliferation of remaining viable cells ([5]; H9C2, after doxorubicin was removed after 24 hours): failed to proliferate
cell death ([5]; H9C2, control arm, 0.4 μM doxorubicin for 24 hours): 65%

SMILES: CC1(C)CCCc2c1nc1sc(C(N)=O)c(N)c1c2-c1cc(Br)co1 [Compound 37, 3-Amino-4-(4-bromo-furan-2-yl)-8,8-dimethyl-5,6,7,8-tetrahydro-thieno[2,3-b]quinoline-2-carboxylic acid amide]
IC50 [1]: 0.9 µM

SMILES: NC(=O)c1sc2nc3c(c(-c4ccc(Cl)o4)c2c1N)CC(c1ccccc1)CC3 (stereo not drawn) [Compound 4, 3-Amino-4-(5-chloro-furan-2-yl)-6-phenyl-5,6,7,8-tetrahydro-thieno[2,3-b]quinoline-2-carboxylic acid amide]
IC50 [1]: 10000 µM

SMILES: NC(=O)c1sc2nc3c(c(-c4cncs4)c2c1N)C1CCC3C1 (stereo not drawn) [Compound 43]
IC50 [1]: 0.9 µM

SMILES: NC(=O)c1sc2nc3c(c(-c4ccc(Cl)o4)c2c1N)CCCC3c1ccccc1 (stereo not drawn) [Compound 13, 3-Amino-4-(5-chloro-furan-2-yl)-8-phenyl-5,6,7,8-tetrahydro-thieno[2,3-b]quinoline-2-carboxylic acid amide]
IC50 [1]: 31 µM

The next lines start with the values.

IC50 [1]: 0.8 µM
SMILES: CC1(C)CCc2c1nc1sc(C(N)=O)c(N)c1c2-c1cc(Br)cs1 [Compound 25, 3-Amino-4-(4-bromo-thiophen-2-yl)-7,7-dimethyl-6,7-dihydro-5H-1-thia-8-aza-s-indacene-2-carboxylic acid amide]

IC50 [1]: 2 µM
SMILES: CC1(C)CCc2c1nc1sc(C(N)=O)c(N)c1c2-c1nccs1 [Compound 23, 3-Amino-7,7-dimethyl-4-thiazol-2-yl-6,7-dihydro-5H-1-thia-8-aza-s-indacene-2-carboxylic acid amide]

IC50 [1]: 3.4 µM
SMILES: CC1(C)CCc2c1nc1sc(C(N)=O)c(N)c1c2-c1cscn1 [Compound 30, 3-Amino-7,7-dimethyl-4-thiazol-4-yl-6,7-dihydro-5H-1-thia-8-aza-s-indacene-2-carboxylic acid amide]

IC50 [1]: 0.5 µM
SMILES: Cc1nc(C)c(-c2c3c(nc4sc(C(N)=O)c(N)c24)C(C)(C)CC3)s1 [Compound 41, 3-Amino-4-(2,4-dimethyl-thiazol-5-yl)-7,7-dimethyl-6,7-dihydro-5H-1-thia-8-aza-s-indacene-2-carboxylic acid amide]
